These results are taken from US5620955A, “Bombesin receptor antagonists and uses thereof” (Peptide Technologies Corporation, priority 1993, dated 1997).

Read-outs that look alike come from different tables or passages of the source. Non-standard residues stand in square brackets, D forms with d. Residues, ends and D or L forms follow the SMILES beside them. *: point of attachment. Chlorambucil = O=C(CCCc1ccc(N(CCCl)CCCl)cc1)*; BrAc = O=C(CBr)* Bounds are passed on as bounds.

Data set [1] deals with NCI-H345. In words: Clonagenic assay, colony formation of NCI-H345. The data set is classed as cell-based, human. The arrangement: key to Growth: significantly reduced (R); had no effect (--) on th. The note with it: for reversal of colony inhibition by BBN (in words): 1 μM antagonist, 10 nM BBN added, both cell lines; for colony formation (in words): NCI-H345, 1 μM; for colony formation: NCI-H345, antagonist 1 μM plus BBN 10 nM; for Growth: compound 1 μM, clonal growth of a human tumor cell line. How it is done:
The effect of 1 to 1000 nM concentration of peptides on growth of NCI-H345 colonies stimulated by 10 nM BBN was measured in the agarose cloning system (Mahoud et al., Cancer Res. 51:1798 (1991); Staley et al., Peptides 12:145-149 (1991)). […] On the day of the assay, cells were harvested, centrifuged and suspended in the buffer. The agarose cloning system consisted of 3 ml of 0.5% agarose in SIT medium with 5% fetal bovine serum in six well plates. To a top layer, consisting of 3 ml HITES medium in 0.3% agarose, the peptides at two times concentration and 6×10^4 single viable cells, were added. For each peptide concentration, triplicate wells were plated. After two weeks, 1 ml of 0.1% p-iodo-nitrotetrazolium violet was added, and after 16 hours at 37° C., the plates were screened for colony formation; the number of colonies larger than […] in diameter were counted using a Bausch and Lomb Omnicon image analysis system.

Data set [2] concerns the target T1, BBN receptor (Homo sapiens, UniProt P30550).
T1 construct: endogenous in cells; host or cells: NCI-H345 (human SCLC)
In words: Cytosolic Ca++ assay in SCLC cell line NCI-H345. Conditions: compound 10 μM; 10 nM BBN elevation of cytosolic Ca++. Format: cell-based. Further details: key: antagonized (A); had no effect (--) on the ability of 10 nM BBN to. How it is done:
SCLC cell line NCI-H345 was cultured for two days in medium containing 10^-8 M hydrocortisone, 5 μg/ml bovine insulin, 10 μg/ml human transferrin, 10^-8 M β-estradiol and 3×10^-8 M Na2 SeO3. The cells were harvested and washed, resuspended in medium containing 20 mM HEPES, pH 7.4, and loaded with 5 μM Fura 2 AM (Calbiochem) for 30 minutes. The cells were centrifuged at 150×g for 10 minutes to remove extracellular dye and resuspended and placed in a spectrofluorometer cell equipped with stirring and 37° C. heating. The emission was read at 510 nm with 340 excitation (Moody et al., Biochem. Biophys. Res. Commun. 147:189 (1987)). The response of compounds at 5 μM was measured initially as a screen and compared to that of 10 nM BBN. The response of varying concentrations of peptide (nM to μM) in the presence of 10 nM BBN was determined.

The subject of data set [3] is NCI-H345. In words: Clonagenic assay, colony formation of NCI-H345. The note with it: antagonist 1 μM alone, mean ± S.E. of 3. The data set is classed as cell-based, human.
Another data set deals with NCI-H720. In words: Clonagenic assay, colony formation of NCI-H720. Format: cell-based, human. Conditions: for colony formation: NCI-H720; for colony formation (in words): second SCLC line (NCI-H270 in the text, NCI-H720 in Table 4), 1 μM. How it is done: On the day of the assay, cells were harvested, centrifuged and suspended in the buffer. The agarose cloning system consisted of 3 ml of 0.5% agarose in SIT medium with 5% fetal bovine serum in six well plates. To a top layer, consisting of 3 ml HITES medium in 0.3% agarose, the peptides at two times concentration and 6×10^4 single viable cells, were added. For each peptide concentration, triplicate wells were plated. After two weeks, 1 ml of 0.1% p-iodo-nitrotetrazolium violet was added, and after 16 hours at 37° C., the plates were screened for colony formation; the number of colonies larger than […] in diameter were counted using a Bausch and Lomb Omnicon image analysis system.

Data set [4] has as its target T1, BBN receptor. In words: Inhibition of [125I]Tyr4-BBN binding to SCLC NCI-H345 membranes. Conditions: for inhibition of BBN binding to SCLC membranes (in words): radiolabelled Tyr4-BBN. How it is done: (§1) Acinar cells from rat pancreas bind BBN and secrete amylase when treated with BBN. The ability of potential antagonists to bind to rat pancreatic acinar cells was examined by determining the ability of the compounds to inhibit the binding of radiolabelled BBN. […] Finally, antagonist activity of the compounds was determined by measuring the ability of compounds to prevent the release of amylase from cells in response to BBN. […] This cell line was also used to evaluate biological activities of potential antagonists derived from the structures of BBN and GRP. The binding of synthetic compounds to cellular membranes prepared from NCI-H345 was determined. The ability of potential antagonists to block the BBN-stimulated increase in cytosolic levels of Ca^++ was determined. Compounds showing inhibition were further tested to determine the effect on growth of two human SCLC cell lines in culture.
Potential antagonists were also evaluated for their ability to inhibit the binding of radiolabelled Tyr^4 -BBN to SCLC membranes and for their effects on BBN signal transduction in SCLC cells.

The target of data set [5] is T2, BBN receptor (Rattus norvegicus, UniProt P52500). Briefly: Inhibition of bombesin-stimulated amylase release from rat pancreatic acini. The data set is classed as cell-based. The note with it: half-maximal inhibition of bombesin-stimulated amylase release from acini; mean ± s.e.m. How it is done: as §1
The incubation solution contained 1% albumin and the wash solution contained 0.2% albumin. The solution was equilibrated with 100% O2. Dispersed acini were suspended in 20 ml of solution. Samples of 1 ml were incubated in the presence of various concentrations of compounds in the presence of 1 nM bombesin. After the first incubation the samples were washed 4 times with wash solution at 4° C. The acini were then resuspended in fresh incubation buffer and incubated at 37° C. Amylase release was measured by the Phadebas reagent. Amylase secretion during a given incubation was expressed as the percentage of amylase present in the acini at the beginning of that incubation that was released into the extracellular medium.

The target of data set [6] is T2, BBN receptor. In words: Inhibition of 125I bombesin binding to rat pancreatic acinar cells. Conditions: for Kd: inhibition of 125I bombesin binding, IC50 divided by radioligand concentration. How it is done: Inhibition of equilibrium binding of ^125 I labeled bombesin to acinar membranes by the compounds was determined. The Kd was determined by dividing IC50 (the concentration of synthetic compound required to inhibit 50% of the specific binding of labelled BBN) by the concentration of radiolabeled peptide.

The target of data set [7] is T2, BBN receptor. Briefly: Stimulation of amylase release from rat pancreatic acinar cells by the compound alone (agonist test). Format: cell-based.
For a further data set, the target named is T3, CCK Receptor (Rattus norvegicus, UniProt P30551).
T3 sequence (P30551 1-444): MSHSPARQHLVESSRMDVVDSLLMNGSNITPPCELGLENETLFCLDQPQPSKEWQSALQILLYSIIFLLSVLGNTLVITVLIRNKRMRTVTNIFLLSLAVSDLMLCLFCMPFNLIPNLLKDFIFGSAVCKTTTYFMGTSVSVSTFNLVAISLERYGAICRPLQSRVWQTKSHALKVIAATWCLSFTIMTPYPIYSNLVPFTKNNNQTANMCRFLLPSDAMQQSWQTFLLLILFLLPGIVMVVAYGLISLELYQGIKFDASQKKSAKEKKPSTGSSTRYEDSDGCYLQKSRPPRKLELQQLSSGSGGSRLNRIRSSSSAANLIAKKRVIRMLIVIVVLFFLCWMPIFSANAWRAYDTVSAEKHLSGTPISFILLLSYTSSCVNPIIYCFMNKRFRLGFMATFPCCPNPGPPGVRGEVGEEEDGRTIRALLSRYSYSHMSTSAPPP
In words: Specificity test, CCK-stimulated amylase secretion of rat pancreatic acinar cells after wash. Conditions: PTC 821 1 μM.

Data set [8] has as its target T2, BBN receptor. The data set is classed as cell-based. Conditions: PTC 821 1 μM.
Description: (§2) Dispersed acinar cells from rat pancreas were prepared as indicated above.
For a further data set, the target named is bombesin receptor. Conditions: inhibits growth with moderate potency; literature value; cited from earlier work.
Setting [9] is: antagonist 1 μM alone, mean ± S.E. of 3.

T2 sequence (P52500 whole entry): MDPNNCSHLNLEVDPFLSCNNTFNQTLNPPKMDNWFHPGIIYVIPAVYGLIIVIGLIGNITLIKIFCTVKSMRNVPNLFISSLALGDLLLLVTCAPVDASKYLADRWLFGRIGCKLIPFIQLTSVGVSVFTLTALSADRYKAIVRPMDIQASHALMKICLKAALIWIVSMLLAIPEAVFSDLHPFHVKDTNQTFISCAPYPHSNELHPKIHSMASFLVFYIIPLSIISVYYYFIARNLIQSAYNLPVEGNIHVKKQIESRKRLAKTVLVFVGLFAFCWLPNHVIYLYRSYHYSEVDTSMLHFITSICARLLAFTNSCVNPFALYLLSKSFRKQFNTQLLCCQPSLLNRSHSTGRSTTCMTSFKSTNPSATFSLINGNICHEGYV
T1 sequence (P30550 whole entry): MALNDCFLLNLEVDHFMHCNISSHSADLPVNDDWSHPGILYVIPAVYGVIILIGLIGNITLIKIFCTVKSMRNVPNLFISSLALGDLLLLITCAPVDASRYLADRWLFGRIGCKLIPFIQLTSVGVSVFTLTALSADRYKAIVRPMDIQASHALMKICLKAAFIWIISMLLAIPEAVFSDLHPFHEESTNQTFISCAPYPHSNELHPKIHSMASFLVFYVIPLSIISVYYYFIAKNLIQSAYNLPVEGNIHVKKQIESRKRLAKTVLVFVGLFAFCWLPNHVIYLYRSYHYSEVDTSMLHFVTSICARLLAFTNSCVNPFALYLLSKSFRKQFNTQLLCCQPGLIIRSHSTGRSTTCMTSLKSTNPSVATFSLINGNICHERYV
Description for CCK Receptor: as §2

The term IC50 denotes the concentration needed to halve the response being measured. As for `CCOC(=O)[C@H](CC(C)C)NC(=O)[C@H](Cc1c[nH]cn1)NC(=O)[C@@H](C)NC(=O)[C@@H](NC(=O)[C@H](C)NC(=O)[C@H](Cc1c[nH]c2ccccc12)NC(=O)[C@H](CCC(N)=O)NC(=O)[C@H](CC(N)=O)NC(=O)CBr)C(C)C` [PTC 816] (BrAc-NQWAV[dA]HL-OEt), the “reversal of colony inhibition by BBN (in words)” value in the data set on NCI-H345 [1] is “can be reversed”. Further, the “colony formation (in words)” value in the data set with NCI-H345 [1] and in the data set on NCI-H720 was “reduce the amount of colony formation” in each case. In addition, the colony formation amounted to 52 ± 3 Colony per mm^2 in the data set with NCI-H345 [1], 27 ± 4 Colony per mm^2 in the data set on NCI-H345 [3], 37 ± 6 Colony per mm^2 in the data set on NCI-H720 (setting [9]) and 66 ± 8 Colony per mm^2 in the data set with NCI-H720 (antagonist 1 μM plus BBN 10 nM). For the same molecule, the Growth entry in the data set on NCI-H345 [1] is reported as “R”. In addition, on BBN receptor [2], the “Ca++ effect” value is reported as “A”. On BBN receptor [4], this molecule registered a 50% inhibitory concentration (IC50) of 55 nM. Further, the “inhibition of BBN binding to SCLC membranes (in words)” value at BBN receptor [4] was “potent inhibitors of BBN binding”.
A word on the Kd: it is the free concentration of one partner at which half of the binding sites on the other are occupied at equilibrium, for simple one-to-one binding. The term EC50 denotes the concentration that produces a half-maximal response. `CCOC(=O)[C@H](CC(C)C)NC(=O)[C@H](Cc1c[nH]cn1)NC(=O)[C@@H](C)NC(=O)[C@@H](NC(=O)[C@H](C)NC(=O)[C@H](Cc1c[nH]c2ccccc12)NC(=O)[C@H](Cc1c[nH]cn1)NC(C)=O)C(C)C` [PTC 818] (Ac-HWAV[dA]HL-OEt): the IC50 against BBN receptor [5] is 4.9 ± 0.1 nM; on BBN receptor [4] (50% inhibition of specific [125I]Tyr4-BBN binding, NCI-H345, read-out: IC50), 25 nM. The “reversal of colony inhibition by BBN (in words)” value in the data set with NCI-H345 [1] is “can be reversed”. Further, the “colony formation (in words)” value in the data set on NCI-H345 [1] and in the data set on NCI-H720 was “reduce the amount of colony formation” in each case. For the same molecule, the colony formation was found to be 57 ± 6 Colony per mm^2 with NCI-H345 [1], 20 ± 5 Colony per mm^2 in the data set on NCI-H345 [3], 36 ± 4 Colony per mm^2 in the data set with NCI-H720 (setting [9]) and 62 ± 7 Colony per mm^2 in the data set with NCI-H720 (antagonist 1 μM plus BBN 10 nM). Moreover, in the data set on NCI-H345 [1], the Growth result is listed as “R”. The “Ca++ effect” value at BBN receptor [2] is “A”. Binding at BBN receptor [6] was put at a Kd of 8.1 ± 1.8 nM. Besides, the “binding to rat pancreatic acinar cells (in words)” value at BBN receptor [6] (inhibition of radiolabelled BBN binding) was “did bind to the cells”. Besides, the “inhibition of BBN binding to SCLC membranes (in words)” value on BBN receptor [4] is on record as “potent inhibitors of BBN binding”. For the same molecule, the EC50 on BBN receptor [7] was > 3000 nM.
On to `CCOC(=O)[C@H](CC(C)C)NC(=O)[C@H](Cc1c[nH]cn1)NC(=O)[C@@H](C)NC(=O)[C@@H](NC(=O)[C@H](C)NC(=O)[C@H](Cc1c[nH]c2ccccc12)NC(=O)[C@H](Cc1c[nH]cn1)NC(=O)CCCc1ccc(N(CCCl)CCCl)cc1)C(C)C` [PTC 821] (Chlorambucil-HWAV[dA]HL-OEt), for which the IC50 stood at 6.3 ± 0.9 nM on BBN receptor [5] and 8 nM at BBN receptor [4]. The “Percent CCK Receptor Activity Recovered” value at CCK Receptor (1 Min post-wash) was 107%; at CCK Receptor (30 Min post-wash), 115%; on CCK Receptor (60 Min post-wash), 89%. Moreover, the “Percent BBN Receptor Activity Recovered” value on BBN receptor [8] (1 Min post-wash) worked out at 5%; on BBN receptor [8] (30 Min post-wash), 18%; at BBN receptor [8] (60 Min post-wash), 25%. Moreover, the “changes in the appearance of the cells indicative of toxicity” value on BBN receptor [8] (rat pancreatic acinar cells) was “no changes in the appearance of the cells”. On BBN receptor [6], this molecule yielded a Kd of 3.2 ± 0.5 nM. Also, the EC50 on BBN receptor [7] is > 3000 nM.
The Ki is a dissociation constant, usually derived from enzyme kinetics or from competition with a known ligand. [Psi^13,14, Leu^14 ]BBN: on bombesin receptor, the Ki was 30 nM.
